According to patent US20240150293A1, “SPIROCYCLOHEXANE DERIVATIVES, PHARMACEUTICAL COMPOSITIONS CONTAINING THEM AND THEIR USES AS ANTI-APOPTOTIC INHIBITORS” (LES LABORATOIRES SERVIER, priority 2021, published 2024):
Like-named read-outs stand apart in the source and are kept apart here.

Legend:
[1] = system: H929 multiple myeloma tumor line; experiment: In vitro cytotoxicity, MTT assay (Example B, Method A); format: cell-based; details: H929 cells, 48 hours exposure, read-out: C50
Method: The cytotoxicity studies were carried out on the H929 multiple myeloma tumor line.
The cells are distributed onto microplates and exposed to the test compounds for 48 hours. The cell viability is then quantified by a colorimetric assay, the Microculture Tetrazolium Assay (Carmichael et al, Cancer Res. 1987, 47, 939-942).
The results are expressed in C50 which means concentration corresponding to […] of effect/inhibition.

[2] = target: Cy5-labelled Mcl1 (amino acids 171-321) C286S protein (UniProtKB Q07820) (Homo sapiens (Human), UniProt Q07820, C286S); experiment: Inhibition of Mcl-1 by the fluorescence quenching assay (Example A, Method B); format: binding
Cy5-labelled Mcl1 (amino acids 171-321) C286S protein, sequence (Q07820 171-321 C286S): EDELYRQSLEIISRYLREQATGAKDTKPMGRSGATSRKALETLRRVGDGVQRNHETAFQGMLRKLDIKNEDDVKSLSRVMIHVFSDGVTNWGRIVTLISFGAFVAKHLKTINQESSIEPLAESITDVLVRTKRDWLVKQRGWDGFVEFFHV
Method in brief: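 Cy5-labelled Mcl1 171-321 C286S (1 nM) quenched by TQ5WS-labelled PUMA peptide (10, 20 or 400 nM); displacement raises fluorescence (Ex 620/Em 680 nm). Buffer 10 mM HEPES, 150 mM NaCl, 0.05% Tween 20, pH 7.4, 5% DMSO; 2 h at room temperature, 11-point curves, IC50 converted to Ki (cKi/eKi).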

SMILES	IC50 ([1]; Homo sapiens, NCI-H929, 48 h)	Ki [2]	IC50 [1]	inhibition at 10 µM ([2]; @ 10 μM, read-out: Mcl-1 inhibition, % at a single concentration)
O=C(O)[C@]1(Nc2cccc(Cl)c2)CC[C@@]2(CC1)c1ccccc1C[C@@H]2C[C@H](COc1ccncc1)c1ccccc1 [Example 555, (1r,2′S,4S)-4-(3-chloroanilino)-2′-{(2S)-2-phenyl-3-[(pyridin-4-yl)oxy]propyl}-2′,3′-dihydrospiro[cyclohexane-1,1′-indene]-4-carboxylic acid]	2860 nM	14.6 nM		
C[C@@H](COc1ccnc2c1[C@@H](C)CC[C@H]2C)C[C@H]1Cc2ccccc2[C@]12CC[C@@](Nc1cccc(Cl)c1)(C(=O)O)CC2 (single isomer, unassigned) [Example 659, (1r,2′S,4S)-4-(3-chloroanilino)-2′-[(2R)-3-{[(5R*,8S*)-5,8-dimethyl-5,6,7,8-tetrahydroquinolin-4-yl]oxy}-2-methylpropyl]-2′,3′-dihydrospiro[cyclohexane-1,1′-indene]-4-carboxylic acid]		5.73 nM	559 nM	
C[C@@H]1CCCc2nccc(OCC(CC3Cc4ccccc4[C@]34CC[C@@](Nc3cccc(Cl)c3)(C(=O)O)CC4)C(F)F)c21 (single isomer, unassigned) [Example 521]		32.3 nM	986 nM	
Cc1cc(OC[C@H](C)C[C@H]2Cc3ccccc3[C@]23CC[C@@](Nc2cccc(Cl)c2)(C(=O)O)CC3)c2c(n1)CCCC2C (single isomer, unassigned) [Example 662]		68.7 nM	9060 nM	
COCCOc1ccc2c(c1)[C@]1(CC[C@@](Nc3cccc(Cl)c3)(C(=O)O)CC1)[C@H](C[C@@H](C)COc1ccnc3ccsc13)C2 [Example 729, (1r,2′R,4R)-4-(3-chloroanilino)-6′-(2-methoxyethoxy)-2′-{(2R)-2-methyl-3-[(thieno[3,2-b]pyridin-7-yl)oxy]propyl}-2′,3′-dihydrospiro[cyclohexane-1,1′-indene]-4-carboxylic acid]	864 nM	7.68 nM		
Cc1cncc(C)c1OC[C@H](C)C[C@H]1Cc2ccccc2[C@]12CC[C@@](Nc1cccc(Cl)c1)(C(=O)O)CC2 [Example 584, (1r,2′S,4S)-4-(3-chloroanilino)-2′-{(2R)-3-[(3,5-dimethylpyridin-4-yl)oxy]-2-methylpropyl}-2′,3′-dihydrospiro[cyclohexane-1,1′-indene]-4-carboxylic acid]	1760 nM	7.03 nM		
C[C@@H](COc1ccnc2c1[C@H](C)CCC2)C[C@H]1Cc2ccccc2[C@]12CC[C@@](Sc1cccc(Cl)c1)(C(=O)O)CC2 [Example 718, (1r,2′S,4S)-4-[(3-chlorophenyl)sulfanyl]-2′-[(2R)-2-methyl-3-{[(5R)-5-methyl-5,6,7,8-tetrahydroquinolin-4-yl]oxy}propyl]-2′,3′-dihydrospiro[cyclohexane-1,1′-indene]-4-carboxylic acid]	15900 nM			14.8%
C[C@@H](COc1ccnc2c1[C@H](C)CCC2)CC1Cc2c(Cl)c(F)ccc2[C@]12CC[C@@](Nc1cccc(Cl)c1)(C(=O)O)CC2 (single isomer, unassigned) [Example 746]		0.356 nM	25.4 nM	
C[C@@H]1CCCc2nccc(OCC(CC3=Cc4ccccc4[C@]34CC[C@@](Nc3cccc(Cl)c3)(C(=O)O)CC4)C(F)F)c21 (single isomer, unassigned) [Example 517]		4.98 nM	550 nM	
C[C@@H]1CCCc2nccc(OCC(F)CC3Cc4ccccc4[C@]34CC[C@@](Nc3cccc(Cl)c3)(C(=O)O)CC4)c21 (single isomer, unassigned) [Example 510]		1.51 nM	252 nM	
C[C@@H]1CCCc2nccc(OCC(F)CC3Cc4ccccc4[C@]34CC[C@@](Nc3cccc(Cl)c3)(C(=O)O)CC4)c21 (single isomer, unassigned) [Example 507]		8.76 nM	2240 nM	
C[C@@H](COc1ccnc2c1[C@@H](C)CCC2)C[C@H]1Cc2ccccc2[C@]12CC[C@@](Cc1cccc(Cl)c1)(C(=O)O)CC2 [Example 719, (1s,2′S,4R)-4-[(3-chlorophenyl)methyl]-2′-[(2R)-2-methyl-3-{[(5S)-5-methyl-5,6,7,8-tetrahydroquinolin-4-yl]oxy}propyl]-2′,3′-dihydrospiro[cyclohexane-1,1′-indene]-4-carboxylic acid]	13200 nM	1450 nM		
O=C(O)[C@]1(Nc2cccc(Cl)c2)CC[C@]2(CC1)C(CC(COc1ccnc3ccsc13)Cc1ccccc1)=Cc1ccccc12 (single isomer, unassigned) [Example 559, (1r,4r)-2′-{2-benzyl-3-[(thieno[3,2-b]pyridin-7-yl)oxy]propyl}-4-(3-chloroanilino)spiro[cyclohexane-1,1′-indene]-4-carboxylic acid]	30000 nM	73 nM		
C[C@@H](COc1ccnc2c1[C@H](C)CCC2)C[C@@H]1Cc2cc(F)ccc2[C@]12CC[C@@](Nc1cccc(Cl)c1)(C(=O)O)CC2 [Example 769, (1r,2′R,4R)-4-(3-chloroanilino)-5′-fluoro-2′-[(2R)-2-methyl-3-{[(5R)-5-methyl-5,6,7,8-tetrahydroquinolin-4-yl]oxy}propyl]-2′,3′-dihydrospiro[cyclohexane-1,1′-indene]-4-carboxylic acid]	125 nM	1.52 nM		
C[C@@H](COc1ccnc2c1[C@H](C)CC[C@H]2C)C[C@H]1Cc2ccccc2[C@]12CC[C@@](Nc1cccc(Cl)c1)(C(=O)O)CC2 [Example 660, (1r,2′S,4S)-4-(3-chloroanilino)-2′-[(2R)-3-{[(5R,8R)-5,8-dimethyl-5,6,7,8-tetrahydroquinolin-4-yl]oxy}-2-methylpropyl]-2′,3′-dihydrospiro[cyclohexane-1,1′-indene]-4-carboxylic acid]	62 nM	1.39 nM		
O=C(O)[C@]1(Nc2cccc(Cl)c2)CC[C@@]2(CC1)c1ccccc1C[C@@H]2C[C@H](COc1ccnc2ccsc12)c1ccccc1 [Example 547, (1r,2′S,4S)-4-(3-chloroanilino)-2′-{(2S)-2-phenyl-3-[(thieno[3,2-b]pyridin-7-yl)oxy]propyl}-2′,3′-dihydrospiro[cyclohexane-1,1′-indene]-4-carboxylic acid]	376 nM	6.95 nM		
C[C@@H](COc1ccnc2c1CCC2)C[C@H]1Cc2ccccc2[C@]12CC[C@@](Nc1cccc(Cl)c1)(C(=O)O)CC2 [Example 599, (1r,2′S,4S)-4-(3-chloroanilino)-2′-{(2R)-3-[(6,7-dihydro-5H-cyclopenta[b]pyridin-4-yl)oxy]-2-methylpropyl}-2′,3′-dihydrospiro[cyclohexane-1,1′-indene]-4-carboxylic acid]	237 nM	1.05 nM		
C[C@@H](COc1ccnc2c1[C@@H](C)CC[C@@H]2C)C[C@H]1Cc2ccccc2[C@]12CC[C@@](Nc1cccc(Cl)c1)(C(=O)O)CC2 [Example 661, (1r,2′S,4S)-4-(3-chloroanilino)-2′-[(2R)-3-{[(5S,8S)-5,8-dimethyl-5,6,7,8-tetrahydroquinolin-4-yl]oxy}-2-methylpropyl]-2′,3′-dihydrospiro[cyclohexane-1,1′-indene]-4-carboxylic acid]	4970 nM	80.7 nM		
Cc1cc(C(C)O)cc2c1C=C(C[C@@H](C)COc1ccnc3c1[C@H](C)CCC3)[C@]21CC[C@](Nc2cccc(Cl)c2)(C(=O)O)CC1 (single isomer, unassigned) [Example 759]		0.303 nM	185 nM	
CC(CC1Cc2ccccc2[C@]12CC[C@@](Nc1cccc(Cl)c1)(C(=O)O)CC2)C1CCC(=O)CC1 (single isomer, unassigned) [Example 571, (1r,4r)-4-(3-chloroanilino)-2′-[2-(4-oxocyclohexyl)propyl]-2′,3′-dihydrospiro[cyclohexane-1,1′-indene]-4-carboxylic acid]		107 nM	30000 nM	
CC(C)(COc1ccnc2sccc12)CC1Cc2ccccc2C12CCC(Nc1cccc(Cl)c1)(C(=O)O)CC2 (single isomer, unassigned) [Example 622, (1r,4r)-4-(3-chloroanilino)-2′-{2,2-dimethyl-3-[(thieno[2,3-b]pyridin-4-yl)oxy]propyl}-2′,3′-dihydrospiro[cyclohexane-1,1′-indene]-4-carboxylic acid]	17100 nM	44.6 nM		
CC[C@@H]1CC[C@@H](F)c2nccc(OC[C@H](C)C[C@H]3Cc4ccccc4[C@]34CC[C@@](Nc3cccc(Cl)c3)(C(=O)O)CC4)c21 [Example 697, (1r,2′S,4S)-4-(3-chloroanilino)-2′-[(2R)-3-{[(5R,8R)-5-ethyl-8-fluoro-5,6,7,8-tetrahydroquinolin-4-yl]oxy}-2-methylpropyl]-2′,3′-dihydrospiro[cyclohexane-1,1′-indene]-4-carboxylic acid]	374 nM	8.28 nM		
C[C@@H](CNc1ccnc2ccsc12)C[C@H]1Cc2ccccc2[C@]12CC[C@@](Nc1cccc(Cl)c1)(C(=O)O)CC2 [Example 627, (1r,2′S,4S)-4-(3-chloroanilino)-2′-{(2R)-2-methyl-3-[(thieno[3,2-b]pyridin-7-yl)amino]propyl}-2′,3′-dihydrospiro[cyclohexane-1,1′-indene]-4-carboxylic acid]	1330 nM	7.36 nM		
C[C@@H](COc1ccnc2c1CCCC2)C[C@H]1Cc2ccccc2[C@]12CC[C@@](Nc1cccc(Cl)c1)(C(=O)O)CC2 [Example 645, (1r,4R)-4-(3-chloroanilino)-2′-{(2R)-2-methyl-3-[(5,6,7,8-tetrahydroquinolin-4-yl)oxy]propyl}-2′,3′-dihydrospiro[cyclohexane-1,1′-indene]-4-carboxylic acid]	617 nM	4.04 nM		
